Consider 17 molecules from ChEMBL document CHEMBL1201862, “PubChem BioAssay data set” (2004).

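Tested at 5 concentrations; 48 h exposure; 96-well plates; endpoints linearly interpolated, else capped at highest concentration. GI50 = concentration required for 50% inhibition of growth.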 The source made the active and inactive calls. Rule as the data show it: active = GI50 up to about 1.1 µM and inactive = higher. Some results are limits rather than exact numbers.

Among the test systems are SNB-78; HL-60; NCI-H460; TK-10; KM12; SF-295; CCRF-CEM; COLO 205; SN12C; MDA-MB-435; BT-549; Hs-578T; MCF7; PC-3; T47D; MDA-MB-231; DU-145; LOX IMVI; NCI/ADR-RES; MDA-N.
Common to all, as to test: DTP human tumour cell line panel, 48 h

For orientation: GI50 means the concentration at which growth is held to half of that of the control. Regarding `Clc1cc(Cl)cc(C2SCc3nc4ccccc4n32)c1` (stereo unspecified), the GI50 is 6.03 µM (inactive) in the experiment with SNB-78; 4.31 µM (inactive) with HL-60; 14.3 µM (inactive) in the experiment with NCI-H460; 27.7 µM (inactive) in the experiment with TK-10; 13.6 µM (inactive) with KM12; 14.5 µM (inactive) with SF-295. In addition, the GI50 was 9.79 µM (inactive) in the experiment on CCRF-CEM, 18.2 µM (inactive) with COLO 205 and 15.2 µM (inactive) in the experiment with SN12C.

Regarding `c1ccc(C2N3CCCCC3[C@@H]3c4[nH]c5ccccc5c4CCN23)cc1` (stereo partly specified), the GI50 in the experiment on SNB-78 is 47.5 µM (inactive); in the experiment on HL-60, 22.1 µM (inactive); in the experiment with NCI-H460 it was 48.8 µM (inactive); with TK-10, > 100 µM (inactive); in the experiment with SF-295, > 100 µM (inactive); in the experiment on CCRF-CEM, 28.6 µM (inactive). Besides, the values for the GI50 in the experiment on COLO 205 and in the experiment on SN12C were 23.3 µM (inactive) and > 100 µM (inactive), respectively.

As for `O=C(CCCN1CCC(C(O)c2ccc(F)cc2)CC1)c1ccc(F)cc1` (stereo unspecified), the GI50 is 57 µM (inactive) in the experiment on MDA-MB-435; 45.4 µM (inactive) with BT-549; 46.1 µM (inactive) with Hs-578T; 64.9 µM (inactive) in the experiment on MCF7; 47.1 µM (inactive) in the experiment with PC-3; 56.1 µM (inactive) with T47D. The GI50 is 39.8 µM (inactive) in the experiment on MDA-MB-231; 56.9 µM (inactive) in the experiment on SNB-78; 35.9 µM (inactive) in the experiment with HL-60; 57.8 µM (inactive) with NCI-H460; 41.4 µM (inactive) in the experiment on TK-10; 56.6 µM (inactive) in the experiment on KM12. Moreover, the GI50 with SF-295 was 63.5 µM (inactive); with CCRF-CEM, 76.2 µM (inactive); in the experiment with DU-145, 61.9 µM (inactive); with COLO 205, 55.7 µM (inactive); in the experiment on LOX IMVI, 50 µM (inactive); in the experiment with SN12C, 71.9 µM (inactive). The figures for the GI50 with NCI/ADR-RES and in the experiment with MDA-N were 66.5 µM (inactive) and 61 µM (inactive), respectively.

On to `CCCCCCCCCCC(C)CCCCCCC(=O)OCC(COP(=O)([O-])OCC[N+](C)(C)C)OC(=O)CCCCCCC(C)CCCCCCCCCC` (stereo unspecified), for which the GI50 with SNB-78, in the experiment with HL-60, in the experiment with NCI-H460, in the experiment on TK-10, in the experiment on KM12 and in the experiment on SF-295 was > 100 µM (inactive) in each case. Besides, the GI50 in the experiment on CCRF-CEM, in the experiment with COLO 205, in the experiment on LOX IMVI and in the experiment on SN12C was > 100 µM (inactive) in each case.

As for `N#C/C(=C\c1ccc2ccccc2c1)c1ccccc1`, the GI50 in the experiment on SNB-78 was 28.1 µM (inactive); in the experiment with NCI-H460, 17.1 µM (inactive); with TK-10 it was 34.3 µM (inactive); with KM12, 27.7 µM (inactive); with SF-295 it was 20.2 µM (inactive); with CCRF-CEM, 32.5 µM (inactive). Also, the GI50 in the experiment on COLO 205 was 17.8 µM (inactive); in the experiment on LOX IMVI, 53.3 µM (inactive); in the experiment on SN12C, 39.8 µM (inactive).

For the molecule `O=C(NC1CCCCC1)NC12CC3CC(CC(F)(C3)C1)C2`, the GI50 was > 100 µM (inactive) in the experiment with SNB-78; > 100 µM (inactive) with HL-60; > 100 µM (inactive) in the experiment on NCI-H460; 85.3 µM (inactive) with TK-10; > 100 µM (inactive) in the experiment on KM12; > 100 µM (inactive) with CCRF-CEM. Besides, the GI50 in the experiment with COLO 205 and in the experiment with LOX IMVI was > 100 µM (inactive) in each case.

`CCN(CC)CCn1nc2c3c(c(NCCN)ccc31)Sc1cc(O)ccc1-2`: the concentration for 50% growth inhibition (GI50) was 0.877 µM (active) with SNB-78; 0.0962 µM (active) with HL-60; 0.0715 µM (active) in the experiment with NCI-H460; 2.22 µM (inactive) with TK-10; 0.615 µM (active) in the experiment on KM12; 0.861 µM (active) with SF-295. The GI50 was 0.166 µM (active) in the experiment on CCRF-CEM, 0.865 µM (active) with COLO 205, 0.146 µM (active) with LOX IMVI and 0.372 µM (active) in the experiment with SN12C.

As for `CO/C(=N\N=Cc1ccccc1)c1ccncc1`, the GI50 in the experiment on SNB-78, in the experiment with HL-60, in the experiment with NCI-H460, with TK-10, in the experiment with KM12 and in the experiment on SF-295 was > 100 µM (inactive) throughout. The GI50 in the experiment with CCRF-CEM, in the experiment with COLO 205 and in the experiment with SN12C was > 100 µM (inactive) each time.

Regarding `Cn1c(=O)c2nc3sc4c(n3c2n(C)c1=O)C(=O)c1ccccc1C4=O`, the GI50 was > 28.4 µM (inactive) in the experiment with MDA-MB-435; > 44.7 µM (inactive) in the experiment on BT-549; 23.3 µM (inactive) with Hs-578T; > 25.9 µM (inactive) with MCF7; > 42 µM (inactive) in the experiment on PC-3; 0.893 µM (active) in the experiment with T47D. Further, the GI50 was > 42.4 µM (inactive) in the experiment on MDA-MB-231; > 100 µM (inactive) in the experiment on SNB-78; 11.2 µM (inactive) in the experiment on HL-60; > 71.1 µM (inactive) in the experiment on NCI-H460; > 100 µM (inactive) in the experiment on TK-10; > 100 µM (inactive) with KM12. Further, the GI50 with SF-295 is > 72.3 µM (inactive); in the experiment with CCRF-CEM it was 17.6 µM (inactive); in the experiment with DU-145, > 65 µM (inactive); in the experiment on COLO 205, > 73.5 µM (inactive); with LOX IMVI, > 30.9 µM (inactive); in the experiment on SN12C, > 69.2 µM (inactive). Moreover, the results for the GI50 in the experiment with NCI/ADR-RES and with MDA-N were 19 µM (inactive) and > 64.3 µM (inactive), respectively.

As for `COc1ccc(C(=O)c2c3cc(OC)c(OC)c(OC)c3cc[n+]2C)cc1`, the GI50 in the experiment on SNB-78 is 38.5 µM (inactive); in the experiment on NCI-H460, 31.6 µM (inactive); in the experiment on TK-10, 46.5 µM (inactive); in the experiment with KM12, 30.4 µM (inactive); with CCRF-CEM, 20.9 µM (inactive); in the experiment with SN12C it was 31.8 µM (inactive).

Turning to `Clc1ccc(OC2CCO2)cc1Cl` (stereo unspecified), the GI50 is > 100 µM (inactive) in the experiment with SNB-78; 35.6 µM (inactive) in the experiment with HL-60; 47.2 µM (inactive) with NCI-H460; 87.7 µM (inactive) with TK-10; 76.6 µM (inactive) in the experiment on KM12; > 100 µM (inactive) in the experiment on SF-295. The GI50 in the experiment with CCRF-CEM is 48.3 µM (inactive); in the experiment on COLO 205, 90.8 µM (inactive); with SN12C it was 88.5 µM (inactive).

As for `Cc1ccc(S(=O)(=O)OCCOCCOCCOCCOCCOS(=O)(=O)c2ccc(C)cc2)cc1`, the GI50 in the experiment on SNB-78 was 83.9 µM (inactive); with NCI-H460, 36.7 µM (inactive); with TK-10, 36.7 µM (inactive); with KM12, 55.7 µM (inactive); in the experiment with SF-295 it was 50.7 µM (inactive); in the experiment on CCRF-CEM, 21.4 µM (inactive). Besides, the GI50 in the experiment with COLO 205 is 17.2 µM (inactive); with LOX IMVI, 45.2 µM (inactive); in the experiment with SN12C it was 39.7 µM (inactive).

Regarding `O=c1[nH]cnc2c(COCCCO)c[nH]c12`, the GI50 in the experiment on SNB-78, with HL-60, with TK-10, in the experiment on KM12, in the experiment on SF-295 and in the experiment with CCRF-CEM was > 100 µM (inactive) in each case. For the same molecule, the GI50 with COLO 205, in the experiment with LOX IMVI and in the experiment with SN12C was > 100 µM (inactive) each time.

With `Cc1c2c(cc3c1[nH]c1ccccc13)C(c1ccc(Cl)cc1)=NCC2`, the GI50 is 0.236 µM (active) in the experiment with MCF7; 0.682 µM (active) in the experiment on SNB-78; 0.288 µM (active) in the experiment with HL-60; 0.267 µM (active) in the experiment with NCI-H460; 0.274 µM (active) with KM12; 0.255 µM (active) in the experiment on SF-295. The GI50 is 0.433 µM (active) with CCRF-CEM; 0.41 µM (active) with COLO 205; 0.424 µM (active) in the experiment with LOX IMVI; 0.244 µM (active) with SN12C; 0.264 µM (active) in the experiment with NCI/ADR-RES.

With `N/C(=N\O)N/N=C/c1cc2c(cc1Cl)OCO2`, the GI50 was 22.3 µM (inactive) in the experiment with MCF7; > 68.2 µM (inactive) with SNB-78; 13.1 µM (inactive) in the experiment with HL-60; 34.1 µM (inactive) in the experiment on NCI-H460; 29.5 µM (inactive) in the experiment with KM12; 22.9 µM (inactive) with SF-295. In addition, the GI50 with CCRF-CEM is 27 µM (inactive); with COLO 205, 33.3 µM (inactive); in the experiment with LOX IMVI, 31.5 µM (inactive); with SN12C, 59 µM (inactive); in the experiment with NCI/ADR-RES it was 18 µM (inactive).

As to `CN(C)CC1CCC/C(=C\c2ccccc2)C1=O` (stereo unspecified), the GI50 in the experiment with MDA-MB-435 is 1.78 µM (inactive); in the experiment with BT-549 it was 7.69 µM (inactive); in the experiment with Hs-578T it was 2.77 µM (inactive); in the experiment on MCF7, 0.575 µM (active); with PC-3 it was 8.49 µM (inactive); with T47D it was 2.12 µM (inactive). The GI50 with MDA-MB-231 is 1.98 µM (inactive); in the experiment on HL-60, 0.512 µM (active); in the experiment on NCI-H460 it was 3.1 µM (inactive); in the experiment on TK-10 it was 2.36 µM (inactive); with KM12, 1.19 µM (inactive); in the experiment with SF-295, 19.5 µM (inactive). The 50% growth inhibitory concentration (GI50) in the experiment on CCRF-CEM was 0.959 µM (active); with DU-145, 15.3 µM (inactive); in the experiment on COLO 205, 2.24 µM (inactive); in the experiment on LOX IMVI, 1.69 µM (inactive); in the experiment on SN12C, 6.14 µM (inactive); in the experiment on NCI/ADR-RES, 10.8 µM (inactive). Besides, in the experiment on MDA-N, the GI50 is 2.99 µM (inactive).

Turning to `CSC1(SC)N2Cc3ccccc3N=C2C1(c1ccccc1)c1ccccc1`, the GI50 with MDA-MB-435 was 4.01 µM (inactive); in the experiment with BT-549 it was > 50.6 µM (inactive); in the experiment with Hs-578T it was 29 µM (inactive); with MCF7, 8.17 µM (inactive); in the experiment on PC-3, 12 µM (inactive); with T47D it was 4.51 µM (inactive). Moreover, the GI50 is 26.7 µM (inactive) in the experiment on MDA-MB-231; 6.08 µM (inactive) in the experiment with HL-60; 7.48 µM (inactive) in the experiment on NCI-H460; > 35.1 µM (inactive) with TK-10; 7.73 µM (inactive) in the experiment with KM12; 11.1 µM (inactive) in the experiment with SF-295. The GI50 is 8.73 µM (inactive) in the experiment on CCRF-CEM; 19.5 µM (inactive) in the experiment with DU-145; 5.89 µM (inactive) with COLO 205; 12.3 µM (inactive) in the experiment on LOX IMVI; 20.5 µM (inactive) with SN12C; 16.4 µM (inactive) in the experiment with NCI/ADR-RES. Moreover, the GI50 with MDA-N is 12.5 µM (inactive).
